How the values were obtained:
rice [1] = test: Test B pre-/postemergence herbicide test; format: in vivo, Oryza sativa; conditions: preemergence, 125 g ai/ha; 0 to 100 scale, 0 is no effect, 100 is complete control
Method in brief: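 Response was scored visually 13 to 15 days after treatment against untreated greenhouse controls, 0 meaning no effect and 100 complete control. Formulations (solvent mixture plus surfactant) went onto soil after planting, onto foliage of 1- to 4-leaf plants, and onto 2-leaf plants in a flooded paddy set including rice and barnyardgrass.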

giant foxtail = test: Test C pre-/postemergence herbicide test; format: in vivo, Setaria faberi; conditions: for Foxtail, Giant plant response rating: 500 g ai/ha
Method in brief: (§1)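 Emerged plants at the 1- to 4-leaf stage (2–18 cm), or freshly planted seeds, received test chemicals in a non-phytotoxic solvent mixture with surfactant. Response was visually scored against controls after 12 to 14 days in the greenhouse, on a 0 (no effect) to 100 (complete control) scale.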

eastern black nightshade = test: Test C pre-/postemergence herbicide test; format: in vivo, Solanum ptycanthum; conditions: for Plant response rating (0 = no effect, 100 = complete control), Nightshade: 62 g ai/ha; for Plant response rating (0 = no effect, 100 = complete control), Nightshade / Plant response rating, Nightshade: preemergence; for Plant response rating, Nightshade: visual, 12 to 14 days; for Nightshade plant response rating: Preemergence, 500 g ai/ha, scale 0 to 100, 0 no effect, 100 complete control
Method in brief: as §1

common ragweed = test: Test C pre-/postemergence herbicide test; format: in vivo, Ambrosia elatior; set-up: key to Plant response rating, Ragweed: 0 = no effect, 100 = complete control; conditions: for Plant response rating (0 = no effect, 100 = complete control), Ragweed: 62 g ai/ha; for Plant response rating (0 = no effect, 100 = complete control), Ragweed / Plant response rating, Ragweed: preemergence; for Plant response rating, Ragweed: visual, 12 to 14 days; for Ragweed plant response rating: Preemergence, 500 g ai/ha, scale 0 to 100, 0 no effect, 100 complete control
Method in brief: as §1

[2] = tested on: common (oilseed) sunflower; test: Test C pre-/postemergence herbicide test; format: in vivo, Helianthus annuus; conditions: for Plant response rating (0 = no effect, 100 = complete control), Sunflower: 62 g ai/ha; for Plant response rating (0 = no effect, 100 = complete control), Sunflower / Plant response rating, Sunflower: preemergence; for Plant response rating, Sunflower: visual, 12 to 14 days; for Sunflower plant response rating: Preemergence, 500 g ai/ha, scale 0 to 100, 0 no effect, 100 complete control
Method in brief: as §1

morningglory = test: Test A pre-/postemergence herbicide test; format: in vivo, Ipomoea spp.
Method in brief: (§2)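 Both application timings were run together: directed soil spray over freshly planted seeds in sandy loam, and runoff spray onto 2–10 cm seedlings. Evaluation after ~10 days in greenhouse used a 0–100 visual scale versus untreated controls.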

velvetleaf = test: Test A pre-/postemergence herbicide test; format: in vivo, Abutilon theophrasti
Method in brief: as §2

rice [3] = test: Test C flooded paddy test; format: in vivo, Oryza sativa; conditions: for Plant response rating, Rice: 500 g ai/ha, visual rating after 12 to 14 days
Method in brief: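 Plants were grown to the 1- to 4-leaf stage (2–18 cm) and then treated postemergence, or grown to the 2-leaf stage for the flooded paddy test. They were held in a greenhouse for 12 to 14 days and then scored by eye against controls, where 0 is no effect and 100 is complete control.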

barnyardgrass = test: Test C flooded paddy test; format: in vivo, Echinochloa crus-galli; conditions: for Plant response rating, Barnyardgrass: 500 g ai/ha, visual rating after 12 to 14 days
Method in brief: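 Greenhouse test with a 12–14 day hold after application and visual comparison with controls. Emerged plants were 1- to 4-leaf stage (2–18 cm) when sprayed postemergence, and the paddy barnyardgrass was at 2 leaves under flooded conditions. 100 = complete control.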

[4] = 125 g ai/ha, scale 0 (no effect) to 100 (complete control), visual, 12 to 14 days, preemergence
[5] = 250 g ai/ha, scale 0 to 100 (0 no effect, 100 complete control), visual, 12 to 14 days, preemergence
[6] = Preemergence, scale 0 to 100, 0 no effect, 100 complete control
[7] = 125 g ai/ha, scale 0 (no effect) to 100 (complete control)
[8] = 250 g ai/ha, scale 0 to 100 (0 no effect, 100 complete control)
[9] = Postemergence, 500 g ai/ha, 0 to 100 scale, 0 no effect, 100 complete control
[10] = Postemergence, 2000 g ai/ha, 0 to 100 scale, 0 no effect, 100 complete control
[11] = Preemergence, 500 g ai/ha, visual rating, 0 to 100 scale (0 no effect, 100 complete control)
[12] = Preemergence, 2000 g ai/ha, visual rating, 0 to 100 scale (0 no effect, 100 complete control)
[13] = 62 g ai/ha, scale 0 to 100 (0 no effect, 100 complete control)
[14] = 125 g ai/ha, scale of 0 to 100, 0 is no effect, 100 is complete control
[15] = 250 g ai/ha, scale of 0 to 100, 0 is no effect, 100 is complete control
[16] = scale 0 to 100 (0 no effect, 100 complete control)

Row | SMILES | Plant response rating (0 = no effect, 100 = complete control), Foxtail, Giant (giant foxtail; 62 g ai/ha, preemergence) | Plant response rating, Foxtail, Giant (giant foxtail; [4]) | Plant response rating, Foxtail, Giant (giant foxtail; [5]) | Foxtail, Giant plant response rating (giant foxtail; [6]) | Plant response rating (0 = no effect, 100 = complete control), Nightshade (eastern black nightshade) | Plant response rating, Nightshade (eastern black nightshade; [7]) | Nightshade plant response rating (eastern black nightshade) | Plant response rating (0 = no effect, 100 = complete control), Ragweed (common ragweed) | Plant response rating, Ragweed (common ragweed; [7]) | Ragweed plant response rating (common ragweed) | Plant response rating (0 = no effect, 100 = complete control), Sunflower [2] | Plant response rating, Sunflower [2, 7] | Sunflower plant response rating [2] | Morningglory plant response rating (morningglory; [9]) | Plant response rating, Morningglory (morningglory; [10]) | Morningglory plant response rating (morningglory; [11]) | Morningglory plant response rating (morningglory; [12]) | Velvetleaf plant response rating (velvetleaf; [9]) | Plant response rating, Velvetleaf (velvetleaf; [10]) | Velvetleaf plant response rating (velvetleaf; [11]) | further results
1 | CCCn1nc(C(C)(C)C)cc1C(=O)Nc1cccc(C(=O)NCC)c1 [Compound 57] | 20 | 95 | 100 | 100 | 85 | 95 | 100 | 65 | 100 | 100 | 0 | 0 | 0 | – | – | – | – | – | – | – | Plant response rating, Rice (rice [1]): 30; Plant response rating, Nightshade (eastern black nightshade; [8]): 100; Plant response rating, Ragweed (common ragweed; [8]): 100; Plant response rating, Sunflower [2, 8]: 0
2 | CC(=NO)c1cccc(NC(=O)c2cc(C(C)(C)C)nn2C)c1 [Compound 102] | 10 | 50 | 80 | 80 | 90 | 100 | 100 | 10 | 20 | 100 | 0 | 20 | 20 | 35 | 55 | 65 | 90 | 10 | 20 | 30 | Velvetleaf plant response rating (velvetleaf; [12]): 60; Rice plant response rating (rice [3]; [13]): 20; Rice plant response rating (rice [3]; [14]): 30; Rice plant response rating (rice [3]; [15]): 40; Plant response rating, Rice (rice [3]; [16]): 60; Barnyardgrass plant response rating (barnyardgrass; [13]): 10; Barnyardgrass plant response rating (barnyardgrass; [14]): 50; Barnyardgrass plant response rating (barnyardgrass; [15]): 50; Plant response rating, Barnyardgrass (barnyardgrass; [16]): 70
3 | CCn1nc(C(C)(C)C)cc1C(=O)Nc1cccc(C(C)=NO)c1 [Compound 108] | 100 | 100 | 100 | 100 | 100 | 100 | 100 | 20 | 20 | 90 | 20 | 20 | 20 | 40 | 40 | 30 | 75 | 90 | 100 | 55 | Velvetleaf plant response rating (velvetleaf; [12]): 90; Foxtail, Giant plant response rating (giant foxtail; Postemergence, scale 0 to 100): 70; Plant response rating, Foxtail, Giant (giant foxtail; postemergence, 125 g ai/ha, scale 0 to 100): 50; Plant response rating, Foxtail, Giant (giant foxtail; postemergence, 62 g ai/ha, scale 0 to 100): 30; Rice plant response rating (rice [3]; [13]): 0; Rice plant response rating (rice [3]; [14]): 0; Rice plant response rating (rice [3]; [15]): 20; Plant response rating, Rice (rice [3]; [16]): 50; Barnyardgrass plant response rating (barnyardgrass; [13]): 30; Barnyardgrass plant response rating (barnyardgrass; [14]): 40; Barnyardgrass plant response rating (barnyardgrass; [15]): 60; Plant response rating, Barnyardgrass (barnyardgrass; [16]): 70
